From PMC8233208 (The Journal of Biological Chemistry, 2021) come the findings set out here.

The test system of this assay is ZIKV (MR766). The experiment in a line: ZIKV total RNA replication by qRT-PCR in infected A549 cells. The class given is cell-based, ZIKV African-lineage MR766 strain. To be noted: 10 μM, RNA replication and NS5 assays. (Real-time PCR tracks product formation cycle by cycle.)

For the substance destruxin A [Compound 12], the “antiviral (anti-ZIKV) activity, comparison among tested compounds” value is listed as “more potent activities”.
